The source of these data is ChEMBL document CHEMBL5375991, “Bioorthogonal Bond Cleavage Chemistry for On-demand Prodrug Activation: Opportunities and Challenges” (J Med Chem, 2023).

Data set [1] in a line: Stability of compound in 3% DMSO/PBS measured after 24 hrs relative to control. It is filed as physicochemical. Conditions: read-out: Stability.
Data set [2] is described as follows: Stability in human plasma measured after 4 hrs. It is filed as ADME, cell-free. The note with it: read-out: Stability.

Take `O=C(O)c1ccc(-c2[s+]c(-c3ccc(N(c4ccccc4)c4ccccc4)cc3)sc2[O-])cc1`: the remaining at 24 h in data set [1] is 47.6%.

For `CCC[N+]1=C(/C=C/C2=C3Oc4cc(NC(=O)O[C@@H]5/C=C/CCCCC5)ccc4C=C3CCC2)C(C)(C)c2ccccc21`, in data set [2], the remaining at 4 h is 77%.
